A short description of series [1]: Humidification cycling by dynamic vapor sorption (DVS). Format: physicochemical. Here is the method:
As-received material (ID 1-1) was subjected to humidification cycling by dynamic vapor sorption (DVS) instrument. The material underwent a 0.01% change in mass in the 15-75% relative humidity range, and a 0.08% change in mass over the full range of 2-95% relative humidity. Following humidification cycling, the solid was analyzed by XRPD.

A short description of series [2]: Solubility in simulated fluids and water. The format is physicochemical. Particulars: for solubility at 24 h: thermodynamic from solid. Here is the method: Solubility of Pattern A and melted solid was assessed in Fasted-State Simulated Gastric Fluid (FaSSGF), Fed-State Simulated Intestinal Fluid (FeSSIF), and Fasted-State Simulated Intestinal Fluid (FaSSIF), water, and 0.5% methyl cellulose+2% Tween80 in water. Five foil-covered 4 mL vials were prepared with 11-13 mg of as-received material (ID-1-1), 10 mm stir bars were included. Five foil-covered 4 mL vials containing between 11-13 mg of C9 were melted on a hot plate at 70° C. for 10 min and cooled to room temperature for 5 min, 10 mm stir bars were included.
Slurries were prepared with the as-received material ID-1-1 (Pattern A) and melted C9, each in 2.5 mL of simulated fluids (including 0.5% methyl cellulose+2% Tween80 in water), or water. The samples containing melted active pharmaceutical ingredient (API) were sonicated briefly, as they appeared to contain clumps of material. […] For solubility analysis 1 mL of each sample was pipetted into a syringe filter, the first 0.5 mL was filtered back into the source vial and the remaining 0.5 mL was filtered into HPLC vials with low volume inserts.
The response factor calculated with the calibration points was used to determine the concentrations of API in the simulated fluids and water. Calibration samples were prepared with as-received material (ID-1-1) in ACN. The concentrations and peak areas for each calibration point were plotted and a response factor calculated for solubility assessment.
Due to high pressures observed with the UPLC column, a different column and a modified method was employed for 24 h data points with 0.5% methyl cellulose+2% Tween80 in water, and 24 h in water (ID-30-4, ID-30-9 and ID-30-10). HPLC samples of ID-30-4 and 30-9 (those containing the methyl cellulose/Tween80 mixture) were diluted 10× with ACN. These samples plus a new set of injections of the calibration points were analyzed, a new response factor was determined, and the solubility of the remaining samples was calculated (response factor: 8084.7908; R2: 0.9989).

SMILES strings stand for the structures. Values after ≈ are worked out from the molar mass of the structure shown. Marks after values point to notes of the source that are not given here.

Usually solubility stands for the concentration that dissolves in the medium under given conditions.

Regarding `CCCCCCCCCC1=C(C)C(=O)C(C)=C(C)C1=O` [Melted Pattern A, 2,3,5-trimethyl-6-nonylcyclohexa-2,5-diene-1,4-dione], the entries for the “DVS Change Mass (wt. %)” value in series [1] (2-95% RH) and in series [1] (15-75% RH) were 0.073 wt. % and 0.044 wt. %, respectively. In addition, the “Solubility at 24 hours (mg/mL)” value is given as 0.28# mg/mL in series [2] (0.5% MC + 2% Tween80 (aq), Phenomenex Luna Phenyl Hexyl HPLC column and modified method, listed as A (melted)); “BDL” in series [2] (FaSSGF); “BDL” in series [2] (water); “BDL#” in series [2] (water, listed as A (melted)). In addition, the “Conc. (mg/mL) at 30 min” value in series [2] (0.5% MC + 2% Tween80 (aq.), listed as A (melted)) is 0.22 mg/mL; in series [2] (FaSSGF), “BDL”; in series [2] (FaSSIF, listed as A (melted)), 0.02 mg/mL; in series [2] (FeSSIF, listed as A (melted)), 0.25 mg/mL; in series [2] (water) it was “BDL”. The solubility at 24 h in series [2] (0.5% methyl cellulose + 2% Tween80 in water, aqueous with cosolvent or surfactant or cyclodextrin, 0.5% MC + 2% Tween80 (aq), Phenomenex Luna Phenyl Hexyl HPLC column and modified method) was 280 µg/mL; in series [2] (Fasted-State Simulated Intestinal Fluid (FaSSIF), fassif), 40 µg/mL (≈ 145 µM); in series [2] (Fed-State Simulated Intestinal Fluid (FeSSIF), fessif) it was 200 µg/mL (≈ 724 µM).

The values above are taken from patent US20230339835A1, “2,3,5-TRIMETHYL-6-NONYLCYCLOHEXA-2,5-DIENE-1,4-DIONE FOR SUPPRESSING AND TREATING ALPHA-SYNUCLEINOPATHIES, TAUOPATHIES, AND OTHER DISORDERS” (PTC THERAPEUTICS, INC., priority 2018, published 2023).
